In brackets after ≈: the same amount, converted by molar mass.
System: Vaccinia virus
Experiment: Antiviral activity against Vaccinia virus infected in human skin fibroblasts primed with interferon and superinduced with cyclohexamide and actinomycin D assessed as inhibition of virus-induced cytopathogenicity
Type: functional
Conditions: Orthopoxvirus vaccinia

Row | Structure (SMILES) | MIC [µM]
1 | O=c1[nH]c(=O)n([C@@H]2O[C@H](CO)[C@@H](O)[C@H]2O)cc1OCc1ccc([N+](=O)[O-])cc1 | > 600
2 | C=CCOc1cn([C@H]2C[C@H](O)[C@@H](CO)O2)c(=O)[nH]c1=O | 350 (≈ 99.5 µg/mL)
3 | Cc1ccc(COc2cn([C@@H]3O[C@H](CO)[C@@H](O)[C@H]3O)c(=O)[nH]c2=O)cc1 | > 600
4 | NC(=O)COc1cn([C@H]2C[C@H](O)[C@@H](CO)O2)c(=O)[nH]c1=O | 130 (≈ 39.2 µg/mL)
5 | NC(=O)COc1cn([C@@H]2O[C@H](CO)[C@@H](O)[C@H]2O)c(=O)[nH]c1=O | > 600
6 | O=c1[nH]c(=O)n([C@H]2C[C@H](O)[C@@H](CO)O2)cc1OCc1ccc([N+](=O)[O-])cc1 | > 520
7 | C=CCOc1cn([C@@H]2O[C@H](CO)[C@@H](O)[C@H]2O)c(=O)[nH]c1=O | > 600
8 | O=c1[nH]c(=O)n([C@H]2C[C@H](O)[C@@H](CO)O2)cc1OCc1ccccc1 | > 600
9 | O=c1[nH]c(=O)n([C@H]2C[C@H](O)[C@@H](CO)O2)cc1O | 40 (≈ 9.77 µg/mL)
10 | Nc1ncnc2c1ncn2[C@@H]1O[C@H](CO)[C@@H](O)[C@@H]1O [VIDARABINE] | 26 (≈ 6.95 µg/mL)
11 | C#CCOc1cn([C@H]2C[C@H](O)[C@@H](CO)O2)c(=O)[nH]c1=O | 140 (≈ 39.5 µg/mL)
12 | O=c1[nH]c(=O)n([C@@H]2O[C@H](CO)[C@@H](O)[C@H]2O)cc1OCc1ccccc1 | > 600
13 | O=c1[nH]c(=O)n([C@H]2C[C@H](O)[C@@H](CO)O2)cc1I [IDOXURIDINE] | 1.4 (≈ 0.496 µg/mL)

— ChEMBL document CHEMBL3244322, “5-O-Alkylated derivatives of 5-hydroxy-2'-deoxyuridine as potential antiviral agents. Anti-herpes activity of 5-propynyloxy-2'-deoxyuridine” (J Med Chem, 1978)
